Patent publication US20150038435A1, “N-TERMINALLY MODIFIED OLIGOPEPTIDES AND USES THEREOF” (Novo Nordisk A/S, priority 2012, published 2015)
*: point of attachment. Lauroyl = CCCCCCCCCCCC(=O)*

How the values were obtained:
[1] = Hydrophobicity: retention time during reverse phase HPLC; format: physicochemical; settings: Acquity CSH C18; pH 7.2 buffer/CH3CN gradient; 40° C.
Excerpt: The retention time (RT) during reverse phase HPLC was taken as a measure of hydrophobicity of an N-terminally modified peptide or oligopeptide of the invention, where the connection is: The longer the RT, the more hydrophobic N-terminally modified peptide or oligopeptide. The following running conditions were applied during HPLC analysis:
Buffer B: 70% (v/v) aq. CH3CN

[2] = tested on: Trypsin; test: Inhibition of enzymatic degradation of a model GLP-1 (FRET substrate) by trypsin; format: biochemical; settings: for EC50: read-out: EC50 Trypsin (0.001 mg/ml), 0.001 mg/ml trypsin, 37° C.
Excerpt: (§1) The use of Förster resonance energy transfer (FRET), also known as fluorescence resonance energy transfer, substrates to monitor activity of proteolytic enzymes is known in the field (for example Anjuere, F. et al. (1993). Biochem J 291 (Pt 3), 869-73).
(§2) Model GLP-1 analogue was designed as FRET substrate by incorporation of 7-Methoxycoumarin-4-acetic acid (MCA) group as the donor chromophore and dinitrophenol group (DNP) as the acceptor chromophore.
(§3) An assay following the increase in fluorescence as a function of time was established in 96 well format using Varioskan Flash Multimode Meter (Thermo Scientific). Each well contained 70 μl of Dulbecco's phosphate buffer saline (Invitrogen catalogue #14190-094), 10 μl of 100 μM GLP-1 FRET substrate, 10 μl of N-terminally acylated peptide or oligopeptide of the invention in varying concentration and 10 μl of a stock solution of an enzyme (chymotrypsin, trypsin, elastase, etc.). The incubations were performed at 37° C. Fluorescence (320 nm excitation wavelength and 405 nm emission wavelength) was measured immediately after addition of the enzyme to the 96 well plate and also every minute for at least the next 30 minutes. The concentration of the enzyme was optimized to allow determination of slopes for the time course of initial fluorescence increase with and without the N-terminally acylated peptides or oligopeptides of the invention. The slopes were determined by linear regression of the linear part of the fluorescence trace (for example, the first 10 min of the reaction). Each assay was performed in duplicate and average of the two traces was included in the calculations. The relative effect of N-terminally acylated peptide or oligopeptides of the invention on enzymatic degradation of GLP-1 FRET substrate was obtained by comparison of the slopes achieved by the same concentration of the N-terminally acylated peptide or oligopeptides. […] This was done by plotting the slopes achieved with different concentrations of the N-terminally acylated peptide or oligopeptides of the invention as a function of their concentrations and fitting the experimental results using, for example, sigmoidal logistic regression (2 parameters, Sigma Plot v 11). Inhibition constants for the interaction between the N-terminally acylated peptide or oligopeptides of the invention and proteolytic enzymes were also obtained by performing the assay described above with varying concentrations of the inhibitor and substrate and analyzing the results, for example, by double reciprocal transformation as known to the person skilled in the art and described for example in Hubalek, F. et al., J. Med. Chem. 47, 1760-1766 (2004).
(§4) The EC50 was determined for the following compounds. EC50±standard error is reported if the results of at least 3 independent measurements were available.

[3] = tested on: Chymotrypsin; test: Inhibition of enzymatic degradation of a model GLP-1 (FRET substrate) by chymotrypsin; format: biochemical; settings: for EC50: read-out: EC50 Chymotrypsin (0.001 mg/ml), 0.001 mg/ml chymotrypsin, 37° C., ± standard error if at least 3 measurements
Excerpt: as §1, §2, §3, §4

[4] = compound 0.1 mM, buffer containing 8% DMSO

EC50 [2]	EC50 [3]	Substance	RT (retention time during reverse phase HPLC as a measure of hydrophobicity) [1]	Slope of the initial increase in fluorescence obtained during incubation with 0.001 mg/ml Trypsin [2, 4]	Slope of the initial increase in fluorescence obtained during incubation with 0.001 mg/ml Chymotrypsin [3, 4]	Slope of the initial increase in fluorescence obtained during incubation with 0.001 mg/ml Trypsin ([2]; compound 1 mM)	Slope of the initial increase in fluorescence obtained during incubation with 0.001 mg/ml Chymotrypsin ([3]; compound 1 mM)
38 µM	121 µM	N-dodecanoyl-Ala-Ala-Ala-Ala-Pro-Phe-OH [Example 19]	6.57 min	–	–	–	–
–	–	N-dodecanoyl-Ala-Ala-Ala-Pro-Tyr-OH [Example 56]	5.74 min	1.92	0.59	–	–
–	–	N-dodecanoyl-Ala-Ala-Ala-Tyr-OH (Lauroyl-AAAY-OH; SMILES CCCCCCCCCCCC(=O)N[C@@H](C)C(=O)N[C@@H](C)C(=O)N[C@@H](C)C(=O)N[C@@H](Cc1ccc(O)cc1)C(=O)O) [Example 57]	5.73 min	1.59	1.65	–	–
–	–	N-dodecanoyl-Ala-Ala-Arg-Tyr-OH (Lauroyl-AARY-OH; SMILES CCCCCCCCCCCC(=O)N[C@@H](C)C(=O)N[C@@H](C)C(=O)N[C@@H](CCCNC(=N)N)C(=O)N[C@@H](Cc1ccc(O)cc1)C(=O)O) [Example 58]	4.87 min	1.98	0.28	–	–
–	–	N-dodecanoyl-Ala-Ala-Asn-Tyr-OH (Lauroyl-AANY-OH; SMILES CCCCCCCCCCCC(=O)N[C@@H](C)C(=O)N[C@@H](C)C(=O)N[C@@H](CC(N)=O)C(=O)N[C@@H](Cc1ccc(O)cc1)C(=O)O) [Example 59]	7.88 min	1.72	1.79	–	–
–	–	N-dodecanoyl-Ala-Ala-Asp-Tyr-OH (Lauroyl-AADY-OH; SMILES CCCCCCCCCCCC(=O)N[C@@H](C)C(=O)N[C@@H](C)C(=O)N[C@@H](CC(=O)O)C(=O)N[C@@H](Cc1ccc(O)cc1)C(=O)O) [Example 60]	4.33 min	1.73	0.91	–	–
–	–	N-dodecanoyl-Ala-Ala-Gln-Tyr-OH (Lauroyl-AAQY-OH; SMILES CCCCCCCCCCCC(=O)N[C@@H](C)C(=O)N[C@@H](C)C(=O)N[C@@H](CCC(N)=O)C(=O)N[C@@H](Cc1ccc(O)cc1)C(=O)O) [Example 61]	8.28 min	2.07	2.20	–	–
–	–	N-dodecanoyl-Ala-Ala-Glu-Tyr-OH (Lauroyl-AAEY-OH; SMILES CCCCCCCCCCCC(=O)N[C@@H](C)C(=O)N[C@@H](C)C(=O)N[C@@H](CCC(=O)O)C(=O)N[C@@H](Cc1ccc(O)cc1)C(=O)O) [Example 62]	4.36 min	1.66	1.35	–	–
–	–	N-dodecanoyl-Ala-Ala-Gly-Tyr-OH (Lauroyl-AAGY-OH; SMILES CCCCCCCCCCCC(=O)N[C@@H](C)C(=O)N[C@@H](C)C(=O)NCC(=O)N[C@@H](Cc1ccc(O)cc1)C(=O)O) [Example 63]	5.46 min	1.90	1.89	–	–
–	–	N-dodecanoyl-Ala-Ala-His-Tyr-OH (Lauroyl-AAHY-OH; SMILES CCCCCCCCCCCC(=O)N[C@@H](C)C(=O)N[C@@H](C)C(=O)N[C@@H](Cc1c[nH]cn1)C(=O)N[C@@H](Cc1ccc(O)cc1)C(=O)O) [Example 64]	5.33 min	2.23	1.23	–	–
–	–	N-dodecanoyl-Ala-Ala-Ile-Tyr-OH (Lauroyl-AAIY-OH; SMILES CCCCCCCCCCCC(=O)N[C@@H](C)C(=O)N[C@@H](C)C(=O)N[C@H](C(=O)N[C@@H](Cc1ccc(O)cc1)C(=O)O)[C@@H](C)CC) [Example 65]	3.12 min	1.60	2.04	–	–
–	–	N-dodecanoyl-Ala-Ala-Leu-Tyr-OH (Lauroyl-AALY-OH; SMILES CCCCCCCCCCCC(=O)N[C@@H](C)C(=O)N[C@@H](C)C(=O)N[C@@H](CC(C)C)C(=O)N[C@@H](Cc1ccc(O)cc1)C(=O)O) [Example 66]	7.18 min	1.98	0.18	–	–
–	–	N-dodecanoyl-Ala-Ala-Lys-Tyr-OH (Lauroyl-AAKY-OH; SMILES CCCCCCCCCCCC(=O)N[C@@H](C)C(=O)N[C@@H](C)C(=O)N[C@@H](CCCCN)C(=O)N[C@@H](Cc1ccc(O)cc1)C(=O)O) [Example 67]	4.7 min	1.89	0.94	–	–
–	–	N-dodecanoyl-Ala-Ala-Met-Tyr-OH (Lauroyl-AAMY-OH; SMILES CCCCCCCCCCCC(=O)N[C@@H](C)C(=O)N[C@@H](C)C(=O)N[C@@H](CCSC)C(=O)N[C@@H](Cc1ccc(O)cc1)C(=O)O) [Example 68]	6.68 min	1.73	0.60	–	–
–	–	N-dodecanoyl-Ala-Ala-Pro-DPhe-OH [Example 4]	6.89 min	–	–	0.83	0.08
–	–	N-dodecanoyl-Ala-Ala-Pro-Leu-OH (Lauroyl-AAPL-OH; SMILES CCCCCCCCCCCC(=O)N[C@@H](C)C(=O)N[C@@H](C)C(=O)N1CCC[C@H]1C(=O)N[C@@H](CC(C)C)C(=O)O) [Example 11]	1.22 min	–	–	3.06	0.77
413 µM	29 ± 2 µM	N-dodecanoyl-Ala-Ala-Pro-Trp-OH (Lauroyl-AAPW-OH; SMILES CCCCCCCCCCCC(=O)N[C@@H](C)C(=O)N[C@@H](C)C(=O)N1CCC[C@H]1C(=O)N[C@@H](Cc1c[nH]c2ccccc12)C(=O)O) [Example 26]	7.03 min	–	–	–	–
–	–	N-dodecanoyl-Ala-Ala-Pro-Tyr-OH [Example 69] (Lauroyl-AAPY-OH; SMILES CCCCCCCCCCCC(=O)N[C@@H](C)C(=O)N[C@@H](C)C(=O)N1CCC[C@H]1C(=O)N[C@@H](Cc1ccc(O)cc1)C(=O)O)	5.79 min	1.83	0.43	–	–
–	–	N-dodecanoyl-Ala-Ala-Ser-Tyr-OH (Lauroyl-AASY-OH; SMILES CCCCCCCCCCCC(=O)N[C@@H](C)C(=O)N[C@@H](C)C(=O)N[C@@H](CO)C(=O)N[C@@H](Cc1ccc(O)cc1)C(=O)O) [Example 70]	5.43 min	1.45	1.50	–	–
